This note sets out measurements from patent publication US4209442A, “Angiotensin II analogs and process for the preparation thereof” (Richter Gedeon Vegyeszeti Gyar Rt., priority 1977, dated 1980).

The test system of the test is hypertension induced by angiotensin II. As to the kind of experiment: Decrease in blood pressure after intravenous administration, under i.v. infusion of angiotensin II. The test is classed as in vivo, tomcats. Conditions: single dose, angiotensin II infusion 0.5 μg/kg/min, average of 6 experiments. The protocol:
The antagonistic activity of the compounds having the formula I was tested on tomcats. The blood pressure was measured on the cervical artery. The tests were performed by introducing a Hypertension (CIBA) infusion into a lateral femoral vane at a speed of 0.5 μg/kg/min. When the increase in blood pressure was stabilized, the aqueous, physiological or carrier-containing solutions of the test compounds and Saralasin were administered in a single dose, intravenously or subcutaneously, and the decrease in blood pressure was measured. In the Table 1 the decrease in the arterial blood pressure under the influence of an intravenous administration of the test compounds is illustrated. For comparision Saralasin is used. The data set forth in the Table 1 were obtained by calculating the average of the results of 6 experiments. The margins of error indicate the scatter of the main value.

For the compound “(Hydroxyacetyl^1,Thr(Me)^8)-angiotensin II [(Hydroxyacetyl^1,Thr(Me)^8)-AngII]”, the “Decrease in blood pressure (mmHg) after administration of 10 μg/kg i.v. doses” value is given as -33 ± 5.3 mmHg. Besides, the “Decrease in blood pressure (mmHg) after administration of 20 /μg/kg i.v. doses” value (20 μg/kg i.v.) is -38 ± 4.1 mmHg.
In the case of `CNCC(=O)N[C@@H](CCCN=C(N)N)C(=O)N[C@H](C(=O)N[C@@H](Cc1ccc(O)cc1)C(=O)N[C@H](C(=O)N[C@@H](Cc1cnc[nH]1)C(=O)N1CCC[C@H]1C(=O)N[C@@H](C)C(=O)O)C(C)C)C(C)C` [Saralasin, reference compound], the “Decrease in blood pressure (mmHg) after administration of 10 μg/kg i.v. doses” value was -41 ± 2.5 mmHg.
